The test system of one data set is serum antibodies. Nature of the data set: Competition study of serum antibodies to SWNT. In kind it is binding, Balb/c mice. The settings on record: high concentrations (>0.1 mg/ml).
The subject of the next data set is CD8+ T cells. Nature of the data set: WT-1 peptide specific CTL responses in vivo (ELISPOT). Conditions: mouse. Here is the method:
Mouse footpads of C57BL/6 or BALB/c, depending on the peptide specificity, are injected with the various OVA constructs in the presence or absence of adjuvant (Titermax, Sigma) along with appropriate control groups. Serum from immunized animals is obtained via retro-orbital bleeding and assayed for SWNT specific Abs using the ELISA protocol described above.
HA-Multiscreen plates were coated with rat-anti-mouse IFN-g antibody (MabTech). CD8+ T cells isolated and purified from the paplitial lymph nodes of immunized animals are plated, and APCs from a non-immunized mouse are isolated, irradiated, pulsed with peptides, and added to the CD8+ T cells at an E:T ratio of 1:4. The cellular mixture is incubated overnight at 37° C. and the plates were developed the next day using an antibody against rat IgG. Spots were counted using a computer assisted video image analyzer with KS ELISPOT 4.0 software (Carol Zeiss Vision, Germany).
A few of these peptides were screened for their ability to elicit WT-1 peptide specific CTL responses in vivo using the methods described above.

Another data set deals with tumor expressing cells. Conditions: previous reports; cited from earlier work.
In another data set the test system is peptide pulsed APCs. The data set can be described thus: ^51Cr cytotoxicity assay. It is filed as cell-based, mouse. The settings on record: E:T ratios 1:60-1:7, 4 hours. Here is the method:
To detect the cytotoxic nature of the activated CD8+ T cells peptide specific CD8+ cells and irradiated peptide pulsed APCs were prepared as described above. The peptide sensitized APCs were labeled with 100 μCi of ^51Cr and incubated together with the CD8+ cells at E:T ratios varying from 1:60-1:7. After incubation together for 4 hours, supernatants were harvested and measured in a gamma counter.

A further data set has as its system GFP1/FFLuc1 Daudi tumor. Nature of the data set: Biodistribution and tumor targeting in disseminated lymphoma model. In kind it is in vivo. Conditions: 24 h after i.v. injection, tumor-bearing scid mice. The procedure: The specific SWNT-rituximab-^111In*DOTA construct or control SWNT-HuM195-^111In*DOTA (Lintuzumab) construct was prepared by adding 111-185 MBq of acidic 111In chloride to 0.50 mg of SWNT-rituximab-DOTA or SWNT-HuM195-DOTA (50 g/L) in MFW and 0.050 mL of 3 M ammonium acetate to yield a pH 5.5 solution. The reaction mixture was maintained at ambient temperature for 30 min and then purified using a 10DG column with 1% HSA/0.9% NaCl. The radiochemical purity of SWNT-rituximab-DOTA or SWNT-HuM195-DOTA was 95% and the radiolabeled Rituximab was 98% as determined by the ITLC-SG methods described herein.
The biodistribution and tumor targeting specificity of SWNT-rituximab-^111In*DOTA was evaluated against different controls in a murine model of disseminated lymphoma (33) using the GFP1/FFLuc1 Daudi cell line. The tumor was introduced by injecting 5 million cells into each of the female C.B.-17 severe combined immunodeficiency (scid) mice (8- to 10-wk old; Taconic Farms) intravenously via the retroorbital sinus route. Tumor growth in mice was determined by BLI using a Xenogen IVIS Optical Imaging System (Xenogen Corp.). Imaging was performed on mice that received an intraperitoneal injection of 3 mg of D-Luciferin (Xenogen) per mouse. On day 28 after tumor infusion, the tumor-bearing mice were separated into 4 groups; an additional 2 groups of scid mice with no tumor were included as control. […]

A further data set has as its system Daudi (CD20+, specific). Conditions: reference (33); cited from earlier work.

We go through nine molecules from patent publication US10406236B2, “Single wall nanotube constructs and uses thereof” (Sloan-Kettering Institute for Cancer Research, priority 2005, dated 2019).

With `O=C(O)CCCC[C@@H]1SC[C@@H]2NC(=O)N[C@@H]21` [biotin], the “inhibition of serum antibodies” value in the data set with serum antibodies is recorded as “did not”.

ALLPAVSSL [WTI-10]: in the data set on CD8+ T cells, the “stimulation of CD8+ T cells that cross react with the native sequence” value (from here on “stimulation”) was “unable”.

AYLPAVSSL [WTI-10A]: in the data set on CD8+ T cells, the “immune response (WT-1 peptide specific CTL response in vivo)” value (shortened to “immune response”) is recorded as “robust immune response” and the “stimulation” value is listed as “stimulated CD8+ T cells that cross reacted with the native sequence”.

CMTWNQMNL [WTI-235]: in the data set on tumor expressing cells, the “ability to kill tumor expressing cells or to produce a successful vaccine” value is “limited ability”. Also, the “stimulation” value in the data set with CD8+ T cells is recorded as “unable”.

CMTWNQMNM [WTI-235A]: in the data set with peptide pulsed APCs, the heteroclitic response entry is recorded as “able to stimulate a heteroclitic response” and the “killing of peptide pulsed targets by CD8+ T cells” value is recorded as “killed pulsed targets”. In the data set with CD8+ T cells, the “immune response” value is “robust immune response” and the “stimulation” value is “stimulated CD8+ T cells that cross reacted with the native sequence”.

As for RYFPNAPYL [WTI-126A], in the data set with peptide pulsed APCs, the heteroclitic response result was “able to stimulate a heteroclitic response” and the “killing of peptide pulsed targets by CD8+ T cells” value is given as “killed pulsed targets”.

With SCLESQPTI [WTI-136], the “stimulation” value with CD8+ T cells was “unable”.

For the molecule SYLESQPTI [WTI-136A], in the data set with CD8+ T cells, the “immune response” value was “robust immune response” and the “stimulation” value was “stimulated CD8+ T cells that cross reacted with the native sequence”.

As for “[111In]Rituximab: ^111In-labeled Rituximab targeting antibody, positive control”, the “femur % ID/g” value with GFP1/FFLuc1 Daudi tumor is reported as 11.4±3.32 % ID/g. Further, the “immunoreactive fraction measured previously” value with Daudi (CD20+, specific) is recorded as 42%±17%.
